Consider 2 compounds from patent US5597915A, “Benzodiazepine derivatives, compositions containing them and their use in therapy” (Merck Sharp & Dohme Ltd., priority 1992, dated 1997).

As a reminder, the pIC50 is the IC50 on a negative log10 scale, so that one unit is a factor of ten.

One assay concerns the target T1, CCK Receptor (Pancreas) (Rattus norvegicus, UniProt P30551).
T1 construct: The whole pancreas was dissected free of fat tissue and was homogenized; from tissue; host or cells: rat whole pancreas homogenate/membranes
T1 sequence (P30551 1-444): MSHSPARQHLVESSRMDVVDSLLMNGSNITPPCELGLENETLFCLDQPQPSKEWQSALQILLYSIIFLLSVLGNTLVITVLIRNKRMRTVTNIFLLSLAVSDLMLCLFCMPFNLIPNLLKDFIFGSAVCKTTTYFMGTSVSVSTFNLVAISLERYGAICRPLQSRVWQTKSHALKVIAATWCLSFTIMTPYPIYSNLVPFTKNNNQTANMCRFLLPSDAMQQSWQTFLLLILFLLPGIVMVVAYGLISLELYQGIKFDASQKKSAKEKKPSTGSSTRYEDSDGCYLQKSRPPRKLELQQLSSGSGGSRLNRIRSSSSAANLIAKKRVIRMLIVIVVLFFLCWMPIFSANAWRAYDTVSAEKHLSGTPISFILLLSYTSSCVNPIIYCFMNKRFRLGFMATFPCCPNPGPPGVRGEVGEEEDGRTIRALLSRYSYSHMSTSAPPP
Nature of the assay: CCK Receptor Binding (Pancreas): inhibition of 125I-CCK-8 binding to rat pancreas membranes. On the set-up: species or system rat (male Sprague-Dawley). Conditions: 50 pM 125I-CCK-8, 25° C., 2 hours, pH 6.5. Here is the method:
1. CCK Receptor Binding (Pancreas)
CCK-8 sulphated was radiolabelled with ^125 I-Bolton Hunter reagent (2000 Ci/mmole). Receptor binding was performed according to Chang and Lotti (Proc. Natl. Acad. Sci. 83, 4923-4926, 1986) with minor modifications.
Male Sprague-Dawley rats (150-200 g) were sacrificed by decapitation. The whole pancreas was dissected free of fat tissue and was homogenized in 25 volumes of ice-cold 10 mM N-2-hydroxyethyl-piperazine-N'-2-ethane sulphonic acid (HEPES) buffer with 0.1% soya bean trypsin inhibitor (pH 7.4 at 25° C.) with a Kinematica Polytron. The homogenates were centrifuged at 47,800 g for 10 min. Pellets were resuspended in 10 volumes of binding assay buffer (20mM (HEPES)), 1 mM ethylene glycol-bis-(β-aminoethylether-N,N'-tetraacetic acid) (EGTA), 5 mM MgCl2, 150 mM NaCl, bacitracin 0.25 mg/ml, soya bean trypsin inhibitor 0.1 mg/ml, and bovine serum albumin 2 mg/ml pH 6.5 at 25° C.) using a Teflon (trademark) homogenizer, 15 strokes at 500 rpm. The homogenate was further diluted in binding assay buffer to give a final concentration of 0.5 mg original wet weight/1 ml buffer. […] The radioactivity on the filters was counted with a LKB gamma counter. […]

For a further assay, the target named is T2, CCK Receptor (Brain) (Cavia porcellus, UniProt H0VZC5).
T2 construct: the cortex was removed and homogenized in 25 mL ice-cold 0.32 M sucrose; from tissue; host or cells: guinea pig cerebral cortex P2 membranes
T2 sequence (H0VZC5 1-426): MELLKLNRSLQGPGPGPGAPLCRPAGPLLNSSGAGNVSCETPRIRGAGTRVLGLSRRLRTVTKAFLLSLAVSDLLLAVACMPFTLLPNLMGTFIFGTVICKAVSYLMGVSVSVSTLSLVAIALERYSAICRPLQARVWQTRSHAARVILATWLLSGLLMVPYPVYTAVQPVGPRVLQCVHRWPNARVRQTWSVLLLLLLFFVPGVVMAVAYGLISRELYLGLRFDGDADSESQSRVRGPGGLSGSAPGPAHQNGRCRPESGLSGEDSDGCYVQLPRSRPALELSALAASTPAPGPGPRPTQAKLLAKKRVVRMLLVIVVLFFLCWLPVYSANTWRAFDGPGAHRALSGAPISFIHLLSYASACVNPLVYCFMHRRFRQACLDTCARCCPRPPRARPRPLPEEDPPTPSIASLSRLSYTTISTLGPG
The assay is described as follows: CCK Receptor Binding (Brain): inhibition of 125I-CCK-8 binding to guinea pig cortex membranes. Also noted: species or system guinea pig (male Hartley). Conditions: 50 pM 125I-CCK-8, 25° C., 2 hours, pH 6.5. Here is the method:
2. CCK Receptor Binding (Brain)
CCK-8 sulphated was radiolabelled and the binding was performed according to the description for the pancreas method with minor modifications.
Male Hartley guinea pigs (300-500 g) were sacrificed by decapitation and the cortex was removed and homogenized in 25 mL ice-cold 0.32 M sucrose. The homogenates were centrifuged at 1000 g for 10 minutes and the resulting supernatant was recentrifuged at 20,000 g for 20 minutes. The P2 pellet was resuspended in binding assay buffer (20 mM HEPES, 5 mM MgCl2, 0.25 mg/ml bacitracin, 1 mM EGTA pH 6.5 at 25° C.), using a Teflon (trademark) homogenizer (5 strokes at 500 rpm) to give a final concentration of 10 mg original wet weight /1.2 ml buffer. For the binding assay, 50 μl of buffer (for total binding) or unlabelled CCK-8 sulphated to give a final concentration of 1 μM (for nonspecific binding) or the compounds of Formula I (for determination of inhibition of ^125 I-CCK-8 binding) and 50 μl of 500 pM ^125 I-CCK-8 (i.e. final concentration of 50 pM) were added to 400 μl of the membrane suspensions in microfuge tubes. All assays were run in duplicate. […] The radioactivity on the filters was counted with a LKB gamma counter. […]

Molecules are shown by their SMILES. pIC50: −log10 of the molar value.

For `CN1C(=O)C(NC(=O)Nc2cccc(-c3noc(=O)[nH]3)c2)N=C(C2CCC2)c2ccccc21` (racemic) [Example 2, N-[3(R,S)-5-Cyclobutyl-2,3-dihydro-1-methyl-2-oxo-1H-1,4-benzodiazepin-3-yl]N'-[3-(5-oxo-4H-1,2,4-oxadiazolin-3-yl)phenyl]urea], the pIC50 on CCK Receptor (Pancreas) is 6.96; at CCK Receptor (Brain), 8.22.

Consider `CN1C(=O)[C@H](NC(=O)Nc2cccc(-c3noc(=O)[nH]3)c2)N=C(C2CCCCC2)c2ccccc21` [Example 1, N-[3(R)-5-Cyclohexyl-2,3-dihydro-1-methyl-2-oxo-1H-1,4-benzodiazepin-3-yl]N'-[3-(5-oxo-4H-1,2,4-oxadiazolin,3-yl)phenyl]urea], for which the pIC50 on CCK Receptor (Pancreas) is 6.30; on CCK Receptor (Brain), 9.91.
